In patent US9034309B2, “Biocidal polymers” (Wisconsin Alumni Research Foundation, priority 2003, dated 2015):
Values after ≈ are worked out from the molar mass of the structure shown. Where a SMILES comes first, the peptide text is derived from it.

Columns and labels:
E. coli JM109 [1] = test: Minimal Bactericidal Concentration (MBC); type: cell-based, Escherichia coli; details: Table 2, unit not given; lowest well concentration showing no colonies (>99% killing); plates incubated 4 d
Method: Minimal Bactericidal Concentration (MBC): To determine cell viability, 10 μL from each of the MIC, 2×MIC, and 4×MIC wells (up to the maximum concentration of […]) was diluted 100-fold. Of this, 100 μL (containing at most 5×10^2 CFU) was plated on 2% bacteriological agar in BHI medium and incubated at 37° C. overnight (for B. subtilis) or for 4 d (for E. coli, because no growth was seen after 10 h; colonies appeared on some plates after extended incubation). The absence of colonies was considered indicative of >99% bacterial killing, and the lowest assay well concentration showing no colonies is reported as the MBC.

[2] = test system: E. faecium A436 (vancomycin-resistant); test: microbe, parasite or virus in culture; type: cell-based, Enterococcus faecium; details: for MIC E. faecium A436: Table 3, unit not given (Table 1: μg/mL), median of at least three experiments
Method: (§1) Minimal Inhibitory Concentration (MIC): Stock solutions of polymers (5.00 μL at 2 mg/mL, prepared as described above), commercial synthetic (Ala^8,3,18)-1-magainin-2-amide (Sigma, dissolved in Millipore water to 1 mg/mL, 10.0 μL, as positive control), or solvent blank (5.00 μL) were diluted into brain-heart infusion (BHI) broth in row A of 96-well sterile assay plates (B-D Falcon 35-3075, Fisher Scientific) and seven serial twofold dilutions were performed to give 50 μL of peptide solution (at double the final assay concentration) in each well. Bacterial strains (Escherichia coli JM1O9, Bacillus subtilis BR151,^24 Staphylococcus aureus 5332 (a clinical MRSA isolate from the Weisblum laboratory strain collection), and Enterococcus faecium A436^25) were grown on 2% bacteriological agar in BHI medium. Cells from these cultures were suspended in BHI broth at a concentration of approximately 10^6 colony-forming units (CFU)/mL, and 50 μL of cell suspension was added to each well to give a total of 100 μL in each well.
(§2) Plates were then incubated at 37° C. for 6 h. Bacterial growth gives rise to turbidity and light scattering, which was detected by measuring 0D650 using a Molecular Devices Emax microplate reader connected to a Windows computer running SOFTmax v.2.34. OD650 values from two simultaneous experiments were averaged. […] If an even number of experiments was performed and the two median values were not identical, the geometric mean is reported as the MIC.

[3] = test system: S. aureus 5332 (clinical MRSA isolate); test: microbe, parasite or virus in culture; type: cell-based, Staphylococcus aureus; details: for MIC S. aureus 5332: Table 3, unit not given (Table 1: μg/mL), median of at least three experiments
Method: as §1, §2

E. coli JM109 [4] = test: microbe, parasite or virus in culture; type: cell-based, Escherichia coli; details: for MIC E. coli JM109: Table 3, unit not given (Table 1: μg/mL), median of at least three experiments
Method: as §1, §2

B. subtilis BR151 = test: microbe, parasite or virus in culture; type: cell-based, Bacillus subtilis; details: for MIC B. subtilis BR151: Table 3, unit not given (Table 1: μg/mL), median of at least three experiments
Method: as §1, §2

[5] = test system: E. Coli, B. subtilis, methicillin-resistant S. aureus, vancomycin-resistant E. faecium; test: BHI growth inhibition assay, statements over all four strains; type: cell-based; details: BHI broth, up to 50 μg/mL
Method: as §1
Plates were then incubated at 37° C. for 6 h. Bacterial growth gives rise to turbidity and light scattering, which was detected by measuring 0D650 using a Molecular Devices Emax microplate reader connected to a Windows computer running SOFTmax v.2.34. OD650 values from two simultaneous experiments were averaged. […]

Structure (SMILES) | MBC E. coli JM109 (E. coli JM109 [1]) | Minimum Inhibitory Concentrations (MIC's) E. faecium A436 ([2]; A436 (vancomycin-resistant, 6 h)) [µg/mL] | MIC E. faecium A436 ([2]; BHI broth, 37° C., 6 h) [µg/mL] | Minimum Inhibitory Concentrations (MIC's) S. aureus 5332 ([3]; 5332 (clinical isolate, 6 h)) [µg/mL] | MIC S. aureus 5332 ([3]; BHI broth, 37° C., 6 h) [µg/mL] | Minimum Inhibitory Concentrations (MIC's) E. coli JM109 (E. coli JM109 [4]; JM109, 6 h) [µg/mL] | MIC E. coli JM109 (E. coli JM109 [4]; BHI broth, 37° C., 6 h) [µg/mL] | Minimum Inhibitory Concentrations (MIC's) B. subtilis BR151 (B. subtilis BR151; BR151, 6 h) [µg/mL] | MIC B. subtilis BR151 (B. subtilis BR151; BHI broth, 37° C., 6 h) [µg/mL] | growth inhibition / inhibitory activity (in words) [5] | MIC ([2]; Enterococcus faecium, BHI broth, 37° C., 6 h, tested up to 50 μg/mL, conservative estimates, read-out: Minimum Inhibitory Concentrations (MIC's) E. faecium A436) [µg/mL] | MIC ([3]; Staphylococcus aureus, MRSA, BHI broth, 37° C., 6 h, tested up to 50 μg/mL, conservative estimates, read-out: Minimum Inhibitory Concentrations (MIC's) S. aureus 5332) [µg/mL] | MIC (E. coli JM109 [4]; Escherichia coli, JM109, BHI broth, 37° C., 6 h, tested up to 50 μg/mL, conservative estimates, read-out: Minimum Inhibitory Concentrations (MIC's) E. coli JM109) [µg/mL] | MIC (B. subtilis BR151; Bacillus subtilis, BR151, BHI broth, 37° C., 6 h, tested up to 50 μg/mL, conservative estimates, read-out: Minimum Inhibitory Concentrations (MIC's) B. subtilis BR151) [µg/mL]
CC[C@H](C)[C@H](NC(=O)CN)C(=O)NCC(=O)N[C@@H](CCCCN)C(=O)N[C@@H](Cc1ccccc1)C(=O)N[C@@H](CC(C)C)C(=O)N[C@@H](Cc1c[nH]cn1)C(=O)N[C@@H](C)C(=O)N[C@@H](C)C(=O)N[C@@H](CCCCN)C(=O)N[C@@H](CCCCN)C(=O)N[C@@H](Cc1ccccc1)C(=O)N[C@@H](C)C(=O)N[C@@H](CCCCN)C(=O)N[C@@H](C)C(=O)N[C@@H](Cc1ccccc1)C(=O)N[C@H](C(=O)N[C@@H](C)C(=O)N[C@@H](CCC(=O)O)C(=O)N[C@H](C(=O)N[C@@H](CCSC)C(=O)N[C@@H](CC(N)=O)C(=O)N[C@@H](CO)C(N)=O)[C@@H](C)CC)C(C)C [(Ala^8,3,18)-magainin-2-amide] (H-GIGKFLHAAKKFAKAFVAEIMNS-NH2; N-terminus assumed) | 25 | 3.2 | 3.2 (≈ 1.29 µM) | 12.5 | 12.5 (≈ 5.04 µM) | 12.5 | 12.5 (≈ 5.04 µM) | 6.3 | 6.3 (≈ 2.54 µM) |  |  |  |  | 
C=Cc1ccc(CN(C)C)cc1 [(1) (monomer), 4-(dimethylaminomethyl)-styrene] |  |  | > 50 |  | > 50 |  | > 50 |  | > 50 | no growth inhibition | > 50 | > 50 | > 50 | > 50
